Source: the supplement of paper PMC10307832

What was measured:
Assay in all cases: relative viability (nuclei count vs DMSO), 5 days (fraction); higher = more cells survive
AZD8055 + OSI-027 = compound: COc1ccc(-c2ccc3c(N4CCOC[C@@H]4C)nc(N4CCOC[C@@H]4C)nc3n2)cc1CO [AZD8055] + COc1cccc2cc(-c3nc([C@H]4CC[C@H](C(=O)O)CC4)n4ncnc(N)c34)[nH]c12 [OSI-027] (partner 0.5 µM)
How it was run: (§1)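 Relative viability is defined as nuclei in treated wells over nuclei in vehicle wells. Duplicate plates were run and medians reported. Lung cancer cell lines in 1536-well plates were dosed by pin tool one day after seeding, with one drug or with a fixed anchor-drug dose plus five library-drug doses (not always all listed) in √10 steps, and nuclei were counted after 5 days.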

AZD8055 + Luminespib = compound: COc1ccc(-c2ccc3c(N4CCOC[C@@H]4C)nc(N4CCOC[C@@H]4C)nc3n2)cc1CO [AZD8055] + CCNC(=O)c1noc(-c2cc(C(C)C)c(O)cc2O)c1-c1ccc(CN2CCOCC2)cc1 [Luminespib] (partner 0.01 µM)
How it was run: as §1

AZD8055 + Linsitinib = compound: COc1ccc(-c2ccc3c(N4CCOC[C@@H]4C)nc(N4CCOC[C@@H]4C)nc3n2)cc1CO [AZD8055] + C[C@]1(O)C[C@@H](c2nc(-c3ccc4ccc(-c5ccccc5)nc4c3)c3c(N)nccn32)C1 [Linsitinib] (partner 1 µM)
How it was run: as §1

AZD8055 + Lapatinib = compound: COc1ccc(-c2ccc3c(N4CCOC[C@@H]4C)nc(N4CCOC[C@@H]4C)nc3n2)cc1CO [AZD8055] + CS(=O)(=O)CCNCc1ccc(-c2ccc3ncnc(Nc4ccc(OCc5cccc(F)c5)c(Cl)c4)c3c2)o1 [Lapatinib] (partner 2 µM)
How it was run: as §1

Cell Line	relative viability (AZD8055 + OSI-027; first compound 0.01 µM)	relative viability (AZD8055 + OSI-027; first compound 0.03162 µM)	relative viability (AZD8055 + OSI-027; first compound 0.1 µM)	relative viability (AZD8055 + OSI-027; first compound 0.3162 µM)	relative viability (AZD8055 + OSI-027; first compound 1 µM)	relative viability (AZD8055 + Luminespib; first compound 0.01 µM)	relative viability (AZD8055 + Luminespib; first compound 0.03162 µM)	relative viability (AZD8055 + Luminespib; first compound 0.1 µM)	relative viability (AZD8055 + Luminespib; first compound 0.3162 µM)	relative viability (AZD8055 + Luminespib; first compound 1 µM)	relative viability (AZD8055 + Linsitinib; first compound 0.01 µM)	relative viability (AZD8055 + Linsitinib; first compound 0.03162 µM)	relative viability (AZD8055 + Linsitinib; first compound 0.1 µM)	relative viability (AZD8055 + Linsitinib; first compound 0.3162 µM)	relative viability (AZD8055 + Linsitinib; first compound 1 µM)	relative viability (AZD8055 + Lapatinib; first compound 0.01 µM)	relative viability (AZD8055 + Lapatinib; first compound 0.03162 µM)	relative viability (AZD8055 + Lapatinib; first compound 0.1 µM)	relative viability (AZD8055 + Lapatinib; first compound 0.3162 µM)	relative viability (AZD8055 + Lapatinib; first compound 1 µM)
ABC-1	0.537	0.551	0.635	0.345	0.36	0.434	0.521	0.289	0.331	0.284	0.845	0.484	0.551	0.425	0.323	1.2	0.939	1.2	0.652	0.611
A-427	0.49	0.491	0.545	0.493	0.434	1.3	0.832	0.817	0.482	0.581	1.13	0.95	0.927	0.783	0.547	1.12	1.03	0.865	0.665	0.546
LCLC-97TM1	0.502	0.472	0.577	0.422	0.415	0.706	0.531	0.365	0.216	0.241	0.182	0.143	0.13	0.122	0.139	0.758	0.815	0.639	0.157	0.181
HCC-15	0.805	0.732	0.658	0.38	0.303	0.304	0.39	0.262	0.208	0.242	0.778	0.808	0.644	0.467	0.29	0.834	0.877	0.886	0.474	0.333
NCI-H647	0.514	0.624	0.568	0.315	0.193	0.15	0.126	0.125	0.0957	0.121	1.18	0.942	0.601	0.439	0.167	1.15	0.565	0.478	0.192	0.207
SW 1573	0.696	0.528	0.47	0.221	0.18	0.121	0.256	0.167	0.103	0.187	0.725	0.584	0.484	0.267	0.153	1.25	0.829	1.04	0.519	0.27
NCI-H1651	0.871	0.682	0.603	0.32	0.413	0.925	0.798	0.779	0.412	0.313	0.845	0.796	0.689	0.305	0.282	0.844	0.569	0.585	0.403	0.324
NCI-H1792	0.799	0.674	0.574	0.431	0.26	0.38	0.415	0.218	0.295	0.127	0.292	0.233	0.223	0.128	0.101	1.02	0.838	0.808	0.15	0.131
NCI-H2023	0.445	0.347	0.266	0.13	0.116	0.591	0.411	0.138	0.1	0.128	0.45	0.343	0.28	0.17	0.12	0.971	0.611	0.361	0.148	0.132
COR-L 105	0.682	0.702	0.615	0.382	0.383	0.733	0.912	0.349	0.3	0.268	0.833	0.941	0.5	0.315	0.297	0.353	0.284	0.318	0.346	0.389
NCI-H1734	0.665	0.553	0.493	0.319	0.225	0.199	0.167	0.194	0.151	0.183	0.857	0.638	0.457	0.289	0.262	1.17	0.789	0.57	0.308	0.242
NCI-H3122	1.09	0.846	0.854	0.323	0.236	0.0869	0.101	0.114	0.0794	0.0854	0.995	0.823	0.547	0.384	0.299	1.09	1.14	1.04	0.79	0.589
CAL-12T	0.717	0.738	0.614	0.208	0.26	0.321	0.203	0.131	0.152	0.139	0.84	0.658	0.465	0.211	0.258	0.67	0.601	0.369	0.37	0.343
NCI-H2085	0.744	0.852	0.551	0.34	0.355	0.447	0.387	0.294	0.21	0.281	0.956	0.744	0.566	0.289	0.274	0.899	0.514	0.384	0.334	0.341
